Activity calls are given as the source filed them. No cut-off for these calls is given here.
How the values were obtained:
[1] = Selectivity index, ratio of IC50 for African green monkey Vero cells to IC50 for amastigote stage of Trypanosoma cruzi IRHOD/CO/2008/SN3 infected in African green monkey Vero cells; assay type: toxicity, cell-based; settings: read-out: Ratio IC50
[2] = Selectivity index, ratio of IC50 for African green monkey Vero cells to IC50 for epimastigote stage of Trypanosoma cruzi IRHOD/CO/2008/SN3; assay type: toxicity, cell-based; settings: read-out: Ratio IC50
Vero = experiment: Cytotoxicity against African green monkey Vero cells assessed as cell viability after 72 hrs by propidium iodide/fluorescein diacetate staining-based flow cytometric analysis; settings: Chlorocebus sabaeus
Trypanosoma cruzi [3] = experiment: Antitrypanosomal activity against amastigote stage of Trypanosoma cruzi IRHOD/CO/2008/SN3 infected in African green monkey Vero cells assessed as parasite growth inhibition after 72 hrs by Giemsa staining-based microscopic analysis; assay type: functional, organism-based; settings: IRHOD/CO/2008/SN3, Vero
Trypanosoma cruzi [4] = experiment: Antitrypanosomal activity against epimastigote stage of Trypanosoma cruzi IRHOD/CO/2008/SN3 assessed as parasite growth inhibition after 72 hrs by Neubauer hemocytometric chamber analysis; assay type: functional, organism-based; settings: IRHOD/CO/2008/SN3, 72 h
Mus musculus [5] = experiment: Toxicity in BALB/c albino mouse infected with blood trypomastigote stage of Trypanosoma cruzi assessed as change in alkaline phosphatase level in serum at 25 mg/kg, ip administered on day 7 to 12 post-infection measured after day 120 relative to control; assay type: organism-based; design: dose 25 mg/kg, route intraperitoneal; settings: in vivo
Mus musculus [6] = experiment: Toxicity in BALB/c albino mouse infected with blood trypomastigote stage of Trypanosoma cruzi assessed as change in ALT/GPT level in serum at 25 mg/kg, ip administered on day 7 to 12 post-infection measured after day 120 relative to control; assay type: organism-based; design: dose 25 mg/kg, route intraperitoneal; settings: in vivo
Mus musculus [7] = experiment: Toxicity in BALB/c albino mouse infected with blood trypomastigote stage of Trypanosoma cruzi assessed as increase in AST/GOT level in serum at 25 mg/kg, ip administered on day 7 to 12 post-infection measured after day 120 relative to control; assay type: organism-based; design: dose 25 mg/kg, route intraperitoneal; settings: in vivo
Mus musculus [8] = experiment: Toxicity in BALB/c albino mouse infected with blood trypomastigote stage of Trypanosoma cruzi assessed as change in total bilirubin level in serum at 25 mg/kg, ip administered on day 7 to 12 post-infection measured after day 120 relative to control; assay type: organism-based; design: dose 25 mg/kg, route intraperitoneal; settings: in vivo
Mus musculus [9] = experiment: Toxicity in BALB/c albino mouse infected with blood trypomastigote stage of Trypanosoma cruzi assessed as change in LDH level in serum at 25 mg/kg, ip administered on day 7 to 12 post-infection measured after day 120 relative to control; assay type: organism-based; design: dose 25 mg/kg, route intraperitoneal; settings: in vivo
Mus musculus [10] = experiment: Toxicity in BALB/c albino mouse infected with blood trypomastigote stage of Trypanosoma cruzi assessed as increase in creatinephophokinase-MB level in serum at 25 mg/kg, ip administered on day 7 to 12 post-infection measured after day 120 relative to control; assay type: organism-based; design: dose 25 mg/kg, route intraperitoneal; settings: in vivo
Mus musculus [11] = experiment: Toxicity in BALB/c albino mouse infected with blood trypomastigote stage of Trypanosoma cruzi assessed as increase in uric acid level in serum at 25 mg/kg, ip administered on day 7 to 12 post-infection measured after day 120 relative to control; assay type: organism-based; design: dose 25 mg/kg, route intraperitoneal; settings: in vivo
Mus musculus [12] = experiment: Toxicity in BALB/c albino mouse infected with blood trypomastigote stage of Trypanosoma cruzi assessed as change in urea level in serum at 25 mg/kg, ip administered on day 7 to 12 post-infection measured after day 120 relative to control; assay type: organism-based; design: dose 25 mg/kg, route intraperitoneal; settings: in vivo
Trypanosoma cruzi [13] = experiment: Trypanocidal activity against metacyclic trypomastigote stage of Trypanosoma cruzi infected in BALB/c albino mouse acute chagas disease model assessed as inhibition of parasitemia at 25 mg/kg, ip administered on day 7 to 12 post-infection measured every 2 days until day 40 […] relative to control; assay type: functional; settings: route intraperitoneal
Trypanosoma cruzi [14] = experiment: Trypanocidal activity against metacyclic trypomastigote stage of Trypanosoma cruzi infected in BALB/c albino mouse acute chagas disease model assessed as reduction of parasite burden at 25 mg/kg, ip administered on day 7 to 12 post-infection measured on day 14 by ELISA; assay type: functional, organism-based; design: dose 25 mg/kg
Mus musculus [15] = experiment: Toxicity in BALB/c albino mouse assessed as mortality at 25 mg/kg, ip administered for 5 days; assay type: organism-based; design: dose 25 mg/kg, route intraperitoneal; settings: in vivo, 120 h
Trypanosoma cruzi [16] = experiment: (§1) Antitrypanosomal activity against trypomastigote stage of Trypanosoma cruzi IRHOD/CO/2008/SN3 assessed as reduction of trypomastigote number per mililiter of culture medium at IC25 preincubated for 12 hrs followed by compound washout measured every 48 hrs for 10 days by Neubauer hemocytometric chamber analysis relative to control; assay type: functional
Trypanosoma cruzi [17] = experiment: as §1, with “amastigote” for “trypomastigote”, “IRHOD/CO/2008/SN3 infected in African green monkey Vero cells” for “IRHOD/CO/2008/SN3”, “cell” for “mililiter of culture medium”; assay type: functional
Trypanosoma cruzi [18] = experiment: Antitrypanosomal activity against amastigote stage of Trypanosoma cruzi IRHOD/CO/2008/SN3 infected in African green monkey Vero cells assessed as decrease in infection rate at IC25 preincubated for 12 hrs followed by compound washout measured every 48 hrs for 10 days by Neubauer hemocytometric chamber analysis relative to control; assay type: functional
Trypanosoma cruzi [19] = experiment: Antitrypanosomal activity against epimastigote stage of Trypanosoma cruzi IRHOD/CO/2008/SN3 assessed as mortality at IC25 after 72 hrs by TEM analysis; assay type: functional, organism-based
Trypanosoma cruzi [20] = experiment: Antitrypanosomal activity against epimastigote stage of Trypanosoma cruzi IRHOD/CO/2008/SN3 assessed as formation of electron-dense vacuoles at IC25 after 72 hrs by TEM analysis; assay type: functional, organism-based
Trypanosoma cruzi [21] = experiment: Antitrypanosomal activity against epimastigote stage of Trypanosoma cruzi IRHOD/CO/2008/SN3 assessed as appearance of enormous reservosomes at IC25 after 72 hrs by TEM analysis; assay type: functional, organism-based
Trypanosoma cruzi [22] = experiment: Antitrypanosomal activity against epimastigote stage of Trypanosoma cruzi IRHOD/CO/2008/SN3 assessed as appearance of swollen structure filled with empty vacuoles at IC25 after 72 hrs by TEM analysis; assay type: functional, organism-based
Trypanosoma cruzi [23] = experiment: Antitrypanosomal activity against epimastigote stage of Trypanosoma cruzi IRHOD/CO/2008/SN3 assessed as change in excreted succinate level at IC25 after 96 hrs by 1H NMR analysis relative to control; assay type: functional
Trypanosoma cruzi [24] = experiment: Antitrypanosomal activity against epimastigote stage of Trypanosoma cruzi IRHOD/CO/2008/SN3 assessed as change in excreted pyruvate level at IC25 after 96 hrs by 1H NMR analysis relative to control; assay type: functional
Trypanosoma cruzi [25] = experiment: Antitrypanosomal activity against epimastigote stage of Trypanosoma cruzi IRHOD/CO/2008/SN3 assessed as change in excreted acetate level at IC25 after 96 hrs by 1H NMR analysis relative to control; assay type: functional
Trypanosoma cruzi [26] = experiment: Antitrypanosomal activity against epimastigote stage of Trypanosoma cruzi IRHOD/CO/2008/SN3 assessed as change in excreted alanine level at IC25 after 96 hrs by 1H NMR analysis relative to control; assay type: functional
Trypanosoma cruzi [27] = experiment: Antitrypanosomal activity against epimastigote stage of Trypanosoma cruzi IRHOD/CO/2008/SN3 assessed as change in excreted lactate level at IC25 after 96 hrs by 1H NMR analysis relative to control; assay type: functional

`O=c1c(O)c(Nc2ccccc2O)c1=O` gave a selectivity ratio [1] of 5.2, a selectivity ratio [2] of 4.5 and an IC50 (Vero) of 228 µM. The IC50 (Trypanosoma cruzi [3]) was 44 µM and the IC50 (Trypanosoma cruzi [4]) was 50.8 µM.
Compound `O=c1c(NCc2ccccc2)c(NC2CCN(Cc3ccccc3)CC2)c1=O` has a selectivity ratio [1] of 9.7, a selectivity ratio [2] of 3.5 and an IC50 (Vero) of 338 µM. For the same compound, the IC50 (Trypanosoma cruzi [3]) was 34.7 µM and the IC50 (Trypanosoma cruzi [4]) was 96.9 µM.
`CCCCNc1c(NCC[N+](C)(C)C)c(=O)c1=O` gave a selectivity ratio [1] of 1.5, a selectivity ratio [2] of 0.5 and an IC50 (Vero) of 57.6 µM. For the same compound, the IC50 (Trypanosoma cruzi [3]) was 38.5 µM and the IC50 (Trypanosoma cruzi [4]) was 107 µM.
For `C[N+](C)(C)CCNc1c(NCc2ccccc2)c(=O)c1=O`, the selectivity ratio [1] was 1.9, the selectivity ratio [2] was 1.2 and the IC50 (Vero) was 74.2 µM. It also gave an IC50 (Trypanosoma cruzi [3]) of 39.2 µM and an IC50 (Trypanosoma cruzi [4]) of 60.8 µM.
For `CCOC(=O)c1ccc(Nc2c(O)c(=O)c2=O)cc1`, the selectivity ratio [1] was 1.2, the selectivity ratio [2] was 0.8 and the IC50 (Vero) was 21.5 µM. For the same compound, the IC50 (Trypanosoma cruzi [3]) was 18.4 µM and the IC50 (Trypanosoma cruzi [4]) was 26.3 µM.
Compound `C[N+](C)(C)CCNc1c(NCc2cccc(CNc3c(NCC[N+](C)(C)C)c(=O)c3=O)c2)c(=O)c1=O` has a selectivity ratio [1] of 1.7, a selectivity ratio [2] of 0.6 and an IC50 (Vero) of 73.1 µM. The IC50 (Trypanosoma cruzi [3]) was 43.9 µM and the IC50 (Trypanosoma cruzi [4]) was 119 µM.
`CCCCNc1c(NCC(=O)O)c(=O)c1=O` showed a selectivity ratio [1] of 2.3, a selectivity ratio [2] of 1.5 and an IC50 (Vero) of 54.8 µM. The IC50 (Trypanosoma cruzi [3]) was 23.8 µM and the IC50 (Trypanosoma cruzi [4]) was 35.7 µM.
Compound `CCCCCCCCCCCCCCCCNc1c(NCC[N+](C)(C)C)c(=O)c1=O` has a selectivity ratio [1] of 5.7, a selectivity ratio [2] of 3.4 and an IC50 (Vero) of 151 µM. The IC50 (Trypanosoma cruzi [3]) was 26.3 µM and the IC50 (Trypanosoma cruzi [4]) was 44.9 µM.
For `CN(CCCNc1c(NCCC[N+](C)(C)C)c(=O)c1=O)CCCNc1c(NCCC[N+](C)(C)C)c(=O)c1=O.[I-].[I-]`, the Activity (Mus musculus [5]) was < 10%, the Activity (Mus musculus [6]) was < 10% and the Activity (Mus musculus [7]) was 40%. For the same compound, the Activity (Mus musculus [8]) was < 10%, the Activity (Mus musculus [9]) was < 10% and the Activity (Mus musculus [10]) was 30%. The Activity (Mus musculus [11]) was 30%, the Activity (Mus musculus [12]) was < 10% and the inhibition in vivo at 25 mg/kg (Trypanosoma cruzi [13]) was 37%. The Activity (Trypanosoma cruzi [14]) was “Active”, the Activity (Mus musculus [15]) was “Non-toxic” and the “inhibition (INH)” value (Trypanosoma cruzi [16]) was 49%. For the same compound, the “inhibition (INH)” value (Trypanosoma cruzi [17]) was 30%, the “inhibition (INH)” value (Trypanosoma cruzi [18]) was 30% and the selectivity ratio [1] was 17.5. It also gave a selectivity ratio [2] of 16.2, an IC50 (Vero) of 301 µM and an IC50 (Trypanosoma cruzi [3]) of 17.1 µM. For the same compound, the IC50 (Trypanosoma cruzi [4]) was 18.5 µM, the Activity (Trypanosoma cruzi [19]) was “Active” and the Activity (Trypanosoma cruzi [20]) was “Active”. For the same compound, the Activity (Trypanosoma cruzi [21]) was “Active”, the Activity (Trypanosoma cruzi [22]) was “Active” and the Activity (Trypanosoma cruzi [23]) was -21.2%. For the same compound, the Activity (Trypanosoma cruzi [24]) was 37.4%, the Activity (Trypanosoma cruzi [25]) was -12% and the Activity (Trypanosoma cruzi [26]) was -13.3%. For the same compound, the Activity (Trypanosoma cruzi [27]) was -20.6%.

Source: ChEMBL document CHEMBL3124761, “Synthesis and biological evaluation of N,N'-squaramides with high in vivo efficacy and low toxicity: toward a low-cost drug against Chagas disease” (J Med Chem, 2014)
